Laboratory results taken from patent US12459951B2, “Compounds that interact with RAS superfamily proteins for treatment of cancers, inflammatory diseases, rasopathies, and fibrotic disease” (SHY Therapeutics, LLC, priority 2022, dated 2025).

Test system: Akt phosphorylation
Assay: Akt Phosphorylation Assay (western blot), Panc-1
Type: cell-based, human
Details: at 10 μM, * = activation
Experimental: Protocol for Western Akt Cell-Based Phosphorylation Assay
This assay is referred to as the “Akt Phosphorylation Assay” throughout this application.
Human tumor-derived pancreatic cancer cell line Panc-1 (expressing KRas G12D mutant) was purchased from American Type Culture Collection and grown in complete DMEM-High Glucose supplemented with penicillin (100 U/mL), streptomycin (100 μg/mL), and 10% heat-inactivated FBS at 37° C. in a humidified incubator with 5% CO2.
Method 1: Cells were plated at 350000 cells/well density in a 12-well plate, allowed 3 hours to adhere to the plate, then starved in the appropriate medium in the presence of 0.5% FBS overnight. The small molecules to be tested were added to the cells in the final concentration of 10 μM in the presence of 0.3% DMSO for 6 hours incubation at 37° C. Next, cells were stimulated with 1.5 ng/ml EGF for 15 minutes then cells were lysed with lysis buffer containing 1% Triton X-100, EDTA, and Halt™ Protease & Phosphatase Inhibitor Cocktail (Thermo Scientific). Protein concentration was assessed by BCA protein assay (Thermo Scientific). Phosphorylation level of Akt was determined by western blot.
Method 2: Cells were plated at 350000 cells/well density in a 12-well plate in 10% FBS. The next day small molecules to be tested were added to the cells in the final concentration of 10 μM in the presence of 0.3% DMSO for 6 hours incubation at 37° C. For IC50 value determination, serial dilutions of compounds were added to cells under the same conditions. Next, cells were lysed with lysis buffer containing 1% Triton X-100, EDTA, and Halt™ Protease & Phosphatase Inhibitor Cocktail (Thermo Scientific). Protein concentration was assessed by BCA protein assay (Thermo Scientific). Phosphorylation level of Akt was determined by western blot.
Western blot protocol: Equal amounts of protein (15-50 μg) were separated by SDS-PAGE and transferred to nitrocellulose membranes (Invitrogen by Thermo Fisher Scientific). The membrane was stained with Ponceau S Stain (Boston BioProducts) to verify uniform protein loading. Membranes were blocked with 10% milk and phosphorylation levels of Akt were assessed by incubating overnight at 4° C. with anti-phospho-Akt (Ser473) antibody (Cell Signaling) followed by HRP-conjugated secondary antibody (Jackson Immunoresearch, West Grove, PA). Bands were incubated in Amersham ECL Prime Western Blotting Detection Reagent (GE Healthcare) and visualized using the ChemiDoc MP imaging system (Bio-Rad).

Compound	% inh of Akt phosphorylation in Panc-1
Cc1c(-c2ccn(C)n2)cn2nc(-c3nccn3C)nc(Nc3cc4n(n3)CCC4)c12 [Compound 100, N-(5,6-Dihydro-4H-pyrrolo[1,2-b]pyrazol-2-yl)-5-methyl-2-(1-methyl-1H-imidazol-2-yl)-6-(1-methyl-1H-pyrazol-3-yl)pyrrolo[2,1-f][1,2,4]triazin-4-amine]	D* (85-100% activation)
Cc1c(-c2ccn(C3CC3)n2)cn2nc(-c3nccn3C)nc(Nc3cc(OCC(F)(F)F)ccn3)c12 [Compound 140, 6-(1-Cyclopropyl-1H-pyrazol-3-yl)-5-methyl-2-(1-methyl-1H-imidazol-2-yl)-N-(4-(2,2,2-trifluoroethoxy)pyridin-2-yl)pyrrolo[2,1-f][1,2,4]triazin-4-amine]	D* (85-100% activation)
Cc1c(-c2ccn(C3CC3)n2)cn2nc(-c3nccn3C)nc(Nc3cc(OCCO)ccn3)c12 [Compound 146, 2-((2-((6-(1-Cyclopropyl-1H-pyrazol-3-yl)-5-methyl-2-(1-methyl-1H-imidazol-2-yl)pyrrolo[2,1-f][1,2,4]triazin-4-yl)amino)pyridin-4-yl)oxy)ethan-1-ol]	D* (85-100% activation)
Cc1c(-c2ccn(C3CC3)n2)cn2nc(-c3nccn3C)nc(Nc3cc(OCCN(C)C)ccn3)c12 [Compound 147, 6-(1-Cyclopropyl-1H-pyrazol-3-yl)-N-(4-(2-(dimethylamino)ethoxy)pyridin-2-yl)-5-methyl-2-(1-methyl-1H-imidazol-2-yl)pyrrolo[2,1-f][1,2,4]triazin-4-amine]	A* (1-25% activation)
Cc1c(-c2ccn(C3CC3)n2)cn2nc(-c3nccn3C)nc(Nc3cc(OCCCN(C)C)ccn3)c12 [Compound 148, 6-(1-Cyclopropyl-1H-pyrazol-3-yl)-N-(4-(3-(dimethylamino)propoxy)pyridin-2-yl)-5-methyl-2-(1-methyl-1H-imidazol-2-yl)pyrrolo[2,1-f][1,2,4]triazin-4-amine]	A (1-25% inhibition)
Cc1c(-c2ccn(C3CC3)n2)cn2nc(-c3nccn3C)nc(Nc3cc(OCCCO)ccn3)c12 [Compound 149, 3-((2-((6-(1-Cyclopropyl-1H-pyrazol-3-yl)-5-methyl-2-(1-methyl-1H-imidazol-2-yl)pyrrolo[2,1-f][1,2,4]triazin-4-yl)amino)pyridin-4-yl)oxy)propan-1-ol]	D* (85-100% activation)
Cc1c(-c2ccn(C3CC3)n2)cn2nc(-c3nccn3C)nc(Nc3cc(O)ccn3)c12 [Compound 150, 2-((6-(1-Cyclopropyl-1H-pyrazol-3-yl)-5-methyl-2-(1-methyl-1H-imidazol-2-yl)pyrrolo[2,1-f][1,2,4]triazin-4-yl)amino)pyridin-4-ol]	B* (26-49% activation)
CO[C@H]1C[C@H](Nc2nc(-c3nccn3C)nn3cc(-c4cccnc4)c(C)c23)C1 [Compound 151, N-((1r,3r)-3-Methoxycyclobutyl)-5-methyl-2-(1-methyl-1H-imidazol-2-yl)-6-(pyridin-3-yl)pyrrolo[2,1-f][1,2,4]triazin-4-amine]	C* (46-84% activation)
COCCO[C@H]1C[C@H](Nc2nc(-c3nccn3C)nn3cc(-c4cccnc4)c(C)c23)C1 [Compound 152, N-((1r,3r)-3-(2-methoxyethoxy)cyclo-butyl)-5-methyl-2-(1-methyl-1H-imidazol-2-yl)-6-(pyridin-3-yl)pyrrolo[2,1-f][1,2,4]triazin-4-amine]	B* (26-49% activation)
CO[C@H]1C[C@@H](Nc2nc(-c3nccn3C)nn3cc(-c4cccnc4)c(C)c23)C1 [Compound 153, N-((1s,3s)-3-methoxy-cyclobutyl)-5-methyl-2-(1-methyl-1H-imidazol-2-yl)-6-(pyridin-3-yl)pyrrolo[2,1-f][1,2,4]triazin-4-amine]	B (26-49% inhibition)
CO[C@H]1C[C@H](Nc2nc(-c3nccn3C)nn3cc(-c4ccncc4)c(C)c23)C1 [Compound 159, N-((1r,3r)-3-Methoxycyclobutyl)-5-methyl-2-(1-methyl-1H-imidazol-2-yl)-6-(pyridin-4-yl)pyrrolo[2,1-f][1,2,4]triazin-4-amine]	B (26-49% inhibition)
COc1cc(-c2cn3nc(-c4nccn4C)nc(N[C@H]4C[C@H](OC)C4)c3c2C)ccn1 [Compound 160, N-((1r,3r)-3-Methoxycyclobutyl)-6-(2-methoxypyridin-4-yl)-5-methyl-2-(1-methyl-1H-imidazol-2-yl)pyrrolo[2,1-f][1,2,4]triazin-4-amine]	B* (26-49% activation)
COCCO[C@H]1C[C@H](Nc2nc(-c3nccn3C)nn3cc(-c4ccnc(OC)c4)c(C)c23)C1 [Compound 161, N-((1r,3r)-3-(2-Methoxy-ethoxy)cyclo-butyl)-6-(2-methoxy-pyridin-4-yl)-5-methyl-2-(1-methyl-1H-imidazol-2-yl)pyrrolo[2,1-f][1,2,4]triazin-4-amine]	A* (1-25% activation)
COc1cc(-c2cn3nc(-c4nccn4C)nc(N[C@H]4C[C@@H](OC)C4)c3c2C)ccn1 [Compound 162, N-((1s,3s)-3-Methoxycyclobutyl)-6-(2-methoxypyridin-4-yl)-5-methyl-2-(1-methyl-1H-imidazol-2-yl)pyrrolo[2,1-f][1,2,4]triazin-4-amine]	B (26-49% inhibition)
COc1ccnc(Nc2nc(-c3nccn3C)nn3cc(-c4cnn(C(C)C)c4)c(C)c23)c1 [Compound 165, 6-(1-Isopropyl-1H-pyrazol-4-yl)-N-(4-methoxypyridin-2-yl)-5-methyl-2-(1-methyl-1H-imidazol-2-yl)pyrrolo[2,1-f][1,2,4]triazin-4-amine]	D* (85-100% activation)
COc1ccnc(Nc2nc(-c3nccn3C)nn3cc(-c4cccnc4)c(-c4ccccn4)c23)c1 [Compound 166, N-(4-Methoxypyridin-2-yl)-2-(1-methyl-1H-imidazol-2-yl)-5-(pyridin-2-yl)-6-(pyridin-3-yl)pyrrolo[2,1-f][1,2,4]triazin-4-amine]	D* (85-100% activation)
COc1cc(Nc2nc(-c3nccn3C)nn3cc(-c4cccnc4)c(-c4ccccn4)c23)ncn1 [Compound 167, N-(6-Methoxypyrimidin-4-yl)-2-(1-methyl-1H-imidazol-2-yl)-5-(pyridin-2-yl)-6-(pyridin-3-yl)pyrrolo[2,1-f][1,2,4]triazin-4-amine]	B* (26-49% activation)
CO[C@H]1C[C@H](Nc2nc(-c3nccn3C)nn3cc(-c4cccnc4)c(-c4ccccn4)c23)C1 [Compound 168, N-((1r,3r)-3-Methoxycyclobutyl)-2-(1-methyl-1H-imidazol-2-yl)-5-(pyridin-2-yl)-6-(pyridin-3-yl)pyrrolo[2,1-f][1,2,4]triazin-4-amine]	0 (0% inhibition)
COc1ccnc(Nc2nc(-c3nccn3C)nn3cc(-c4cccnc4)c(-c4cccnc4)c23)c1 [Compound 169, N-(4-methoxypyridin-2-yl)-2-(1-methyl-1H-imidazol-2-yl)-5,6-di(pyridin-3-yl)pyrrolo[2,1-f][1,2,4]triazin-4-amine]	C* (46-84% activation)

Test system: not listed separately
Assay: Kinetic Solubility Assay in pH 7.4 Buffer + 2% DMSO
Type: physicochemical
Details: phosphate-buffered saline pH 7.4 with 2% DMSO, aqueous buffer, kinetic from dmso stock, 25° C., two hours
Experimental: Biological Example 9: Kinetic Solubility
Kinetic solubility assay in pH 7.4 Buffer+2% DMSO (“Kinetic Solubility Assay) was performed according to the following protocol: Briefly, using a 20 mM stock solution of the tested compounds in 100% DMSO, dilutions were prepared to a theoretical concentration of 400 μM in duplicates in phosphate-buffered saline pH 7.4 (138 mM NaCl, 2.7 mM KCl, 10 mM K-phosphate) with 2% final DMSO. The tested compounds dilutions in PBS were further allowed to equilibrate at 25° C. on a thermostatic shaker for two hours and then filtered through HTS filter plates using a vacuum manifold. The filtrates of the test compounds were diluted 2-fold with acetonitrile with 2% DMSO before measuring.
In parallel, using a 20 mM stock solution of the tested compounds in 100% DMSO, dilutions were prepared to theoretical concentrations of 0 μM (blank), 10 μM, 25 μM, 50 μM, 100 μM, and 200 μM in 50% acetonitrile/PBS with 2% final DMSO to generate calibration curves. Ondansetron was used as a reference compound to control proper assay performance. 200 μL of each sample was transferred to a 96-well plate and measured in the 230-550 nm range with a 5 nm step.
The concentrations of compounds in PBS filtrate are calculated using a dedicated Microsoft Excel calculation script. Proper absorbance wavelengths for calculations are selected for each compound manually based on absorbance maximums (absolute absorbance unit values for the minimum and maximum concentration points within the 0-3 OD range). Each final dataset is visually evaluated by the operator, and goodness of fit (R2) is calculated for each calibration curve. The effective range of this assay is approximately 2-400 μM and the compounds returning values close to the upper limit of the range may have higher actual solubility (e.g., 5′-deoxy-5-fluorouridine).
Table 8 show kinetic solubility data for selected compounds tested in the Kinetic Solubility assay described above.

Compound	solubility at 2 h [µM]
Cc1c(-c2ccn(C)n2)cn2nc(-c3nccn3C)nc(Nc3cc4n(n3)CCC4)c12 [Compound 100, N-(5,6-Dihydro-4H-pyrrolo[1,2-b]pyrazol-2-yl)-5-methyl-2-(1-methyl-1H-imidazol-2-yl)-6-(1-methyl-1H-pyrazol-3-yl)pyrrolo[2,1-f][1,2,4]triazin-4-amine]	10 to 30
